# Where a name gives a salt, the structure may show the parent alone.
# Target: recombinant sEH (soluble epoxide hydrolase, EPHX2) (Homo sapiens (Human), UniProt P34913)
# Experiment: biochemical fluorometric sEH inhibition assay with Phome substrate
# Conditions: recombinant sEH purified from Sf9 insect cells, 2 nM sEH, 5 μM Phome, 60 minutes at 30° C.
# Method: Compounds were tested in a biochemical screening assay using recombinant sEH purified from Sf9 insect cells and an artificial substrate, (3-phenyl-oxiranyl)-acetic acid cyano-(6-methoxy-naphtalen-2-yl)-methyl ester, Phome. The biochemical assay was performed in analogy to a fluorometric described in the literature (P. D. Jones et al., Anal. Biochem. 2005, 343, 66-75). The assay principle bases on the sEH-catalyzed hydrolysis of an artificial α-cyano-ester substrate. O-deacetylation liberates a cyanohydrin intermediate that rapidly decomposes to the highly fluorescent 6-methoxy-2-naphtaldehyde. To discriminate sample autofluorescence, the assay was carried out as a kinetic measurement with two time points. The first measurement is performed immediately before addition of the substrate and the […] measurement is done after completion of the assay. The assay format is either in 96- or in 384-well format.
# Details of the assay using a 96-well plate format are described below. 40 μl recombinant sEH enzyme and 5 μl test compound are pre-incubated for 15 minutes at 30° C. Following pre-incubation, the reaction is started by addition of 5 μl Phome. The assay mixture containing 2 nM final sEH concentration, test compound ranging in a concentration from 0.0001-10 μM and 5 μM Phome is incubated for 60 minutes at 30° C.
# Fluorescence is measured with any suitable detector for instance a TECAN Safire or Tecan Ultra at […]. % inhibition of recombinant sEH activity is used for calculation of corresponding IC50 values as illustrated and described in the examples.
# The NCBI gene bank reference sequence with the accession number NM_001979 for EPHX2/sEH was applied for recombinant protein production:
# The following commercially available materials have been used: • Incubation reagent: 25 mM Hepes (Sigma-Aldrich, Cat. No H-3375), 0.01% bovine albumin (Sigma-Aldrich Cat. No PA9205) • Substrate: 3-Phenyl-oxiranyl)-acetic acid cyano-(6-methoxy-naphtalen-2-yl)-methyl ester, Phome (Biozol Cat. No 10003134) • Microtiter plates: 96-well plates (Greiner Cat. No 655180; Costar Cat. No 3915)
# recombinant sEH (soluble epoxide hydrolase, EPHX2), sequence (P34913 whole entry): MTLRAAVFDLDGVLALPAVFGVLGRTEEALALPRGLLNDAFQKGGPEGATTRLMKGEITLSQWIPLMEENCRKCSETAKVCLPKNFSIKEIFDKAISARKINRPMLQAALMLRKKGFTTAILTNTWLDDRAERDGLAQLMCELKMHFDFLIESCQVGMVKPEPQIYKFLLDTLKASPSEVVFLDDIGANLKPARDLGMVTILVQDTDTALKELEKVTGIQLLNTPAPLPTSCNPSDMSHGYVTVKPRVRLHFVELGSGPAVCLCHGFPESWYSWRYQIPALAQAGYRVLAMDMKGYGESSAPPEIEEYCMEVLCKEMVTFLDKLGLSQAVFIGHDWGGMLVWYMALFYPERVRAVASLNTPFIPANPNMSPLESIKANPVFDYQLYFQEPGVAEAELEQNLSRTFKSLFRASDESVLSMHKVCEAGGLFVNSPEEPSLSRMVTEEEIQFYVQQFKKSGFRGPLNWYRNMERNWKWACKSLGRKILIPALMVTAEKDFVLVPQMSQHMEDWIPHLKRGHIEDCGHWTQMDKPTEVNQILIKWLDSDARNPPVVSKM
row,IC50,SMILES
1,0.502 nM,Cc1noc(C)c1C(=O)N1CCN(Cc2ccc(C(=O)NCc3ccc(Cl)cc3Cl)s2)CC1 [Example 2]
2,0.168 nM,O=C(NCc1ccccc1C(F)(F)F)c1ccc(CN2CCN(C(=O)c3cccnc3)CC2)s1 [Example 4]
3,0.432 nM,CC(C)CCNC(=O)c1ccc(CN2CCN(C(=O)[C@@H]3C[C@H]3c3ccccc3)CC2)s1 [Example 5]
4,0.524 nM,COc1ncccc1C(=O)N1CCN(Cc2ccc(C(=O)NCc3ccc(Cl)cc3Cl)s2)CC1 [Example 7]
5,0.512 nM,O=C(NCc1ccc(Cl)cc1Cl)c1ccc(CN2CCN(C(=O)c3cnn4ccccc34)CC2)s1 [Example 8]
6,3.06 nM,COc1ccc(CNC(=O)c2ccc(CN3CCN(C(=O)c4c(C)cc(=O)oc4C)CC3)s2)c(C(F)(F)F)c1 [Example 9]
7,2.94 nM,Cc1cc(=O)oc(C)c1C(=O)N1CCN(Cc2ccc(C(=O)NCCC(C)(C)C)s2)CC1 [Example 10]
8,2.95 nM,Cc1cc(=O)oc(C)c1C(=O)N1CCN(Cc2ccc(C(=O)NCCCn3nc(C(F)(F)F)cc3C)s2)CC1 [Example 11]
9,25.4 nM,Cc1c(C(=O)N2CCN(Cc3ccc(C(=O)NCCC(C)C)s3)CC2)oc2ccc(Br)cc12 [Example 12]
10,2.98 nM,CC(C)CCNC(=O)c1ccc(CN2CCN(C(=O)c3ccnn3C(F)F)CC2)s1 [Example 13]
11,2.93 nM,CNC(=O)c1cccnc1N1CCN(Cc2ccc(C(=O)NCc3ccc(Cl)cc3Cl)s2)CC1 [Example 14]
12,0.604 nM,O=C(NCc1ccccc1C(F)(F)F)c1ccc(CN2CCN(C(=O)c3ccc4nccn4c3)CC2)s1 [Example 15]
13,0.534 nM,O=C(NCc1ccccc1C(F)(F)F)c1ccc(CN2CCN(C(=O)c3ccccn3)CC2)s1 [Example 16]
14,0.678 nM,O=C(NCc1ccccc1C(F)(F)F)c1ccc(CN2CCN(C(=O)c3cscc3Br)CC2)s1 [Example 18]
15,0.695 nM,O=C(NCc1ccccc1OC(F)(F)F)c1ccc(CN2CCN(C(=O)N3CCCC3)CC2)s1 [Example 19]
16,0.539 nM,CC(O)C(=O)N1CCN(Cc2ccc(C(=O)NCc3ccc(Cl)cc3Cl)s2)CC1 (stereo not shown) [Example 20]
17,2.9 nM,COCc1cc(O)nc(N2CCN(Cc3ccc(C(=O)NCc4ccc(Cl)cc4Cl)s3)CC2)n1 [Example 21]
18,2.8 nM,COc1ccc(CNC(=O)c2ccc(CN3CCN(c4ccc(O)nn4)CC3)s2)c(OC(F)(F)F)c1 [Example 22]
19,2.75 nM,Cc1cc(=O)oc(C)c1C(=O)N1CCN(Cc2ccc(C(=O)NCC3CCc4ccccc43)s2)CC1 (stereo not shown) [Example 23]
20,2.76 nM,Cn1nc(C(C)(C)C)cc1C(=O)N1CCN(Cc2ccc(C(=O)NCc3ccccc3C(F)(F)F)s2)CC1 [Example 25]
21,2.75 nM,Cc1cnc(C)c(N2CCN(Cc3ccc(C(=O)NCc4ccccc4OC(F)(F)F)s3)CC2)n1 [Example 26]
22,0.803 nM,O=C(NCc1ccc(Cl)cc1Cl)c1ccc(CN2CCN(C3CCC3)CC2)s1 [Example 27]
23,0.803 nM,Cc1cc(C(=O)NCCC(C)(C)C)sc1CN1CCN(C(=O)c2c(C)cc(=O)oc2C)CC1 [Example 28]
24,0.803 nM,Cc1cc(C(=O)NCc2cccc3c2OCCO3)sc1CN1CCN(C(=O)c2c(C)cc(=O)oc2C)CC1 [Example 29]
25,0.803 nM,"COc1cc(CNC(=O)c2ccc(CN3CCN(C(=O)[C@H](O)C(C)C)CC3)s2)ccn1 [Example 30, 5-[4-((R)-2-Hydroxy-3-methyl-butyryl)-piperazin-1-ylmethyl]-thiophene-2-carboxylic acid (2-methoxy-pyridin-4-ylmethyl)-amide]"
26,0.756 nM,COc1ccc(CNC(=O)c2ccc(CN3CCN(C(=O)C(C)O)CC3)s2)c(OC(F)(F)F)c1 (stereo not shown) [Example 32]
27,0.906 nM,Cc1cc(=O)oc(C)c1C(=O)N1CCN(Cc2ccc(C(=O)NCc3ccc(C(F)(F)F)cc3)s2)CC1 [Example 33]

row,IC50,SMILES
1,0.906 nM,COc1cc(CNC(=O)c2ccc(CN3CCN(C(=O)c4c(C)cc(=O)oc4C)CC3)s2)ccn1 [Example 34]
2,0.916 nM,Cc1cc(=O)oc(C)c1C(=O)N1CCN(Cc2ccc(C(=O)NCc3ccccc3OC(F)(F)F)s2)CC1 [Example 35]
3,0.906 nM,Cc1cc(=O)oc(C)c1C(=O)N1CCN(Cc2ccc(C(=O)NCc3ccccc3C(F)(F)F)s2)CC1 [Example 36]
4,0.929 nM,O=C(NCc1ccccc1OC(F)(F)F)c1ccc(CN2CCN(C(=O)C3(O)CC3)CC2)s1 [Example 37]
5,0.803 nM,O=C(NCc1ccccc1OC(F)(F)F)c1ccc(CN2CCN(C3CCCC3)C(=O)C2)s1 [Example 38]
6,2.75 nM,Cc1cncc(N2CCN(Cc3ccc(C(=O)NCc4ccccc4OC(F)(F)F)s3)CC2)n1 [Example 39]
7,2.75 nM,COc1cc(CNC(=O)c2ccc(CN3CCN(C(=O)C4CC(=O)OC4(C)C)CC3)s2)ccn1 (stereo not shown) [Example 40]
8,2.75 nM,CN[C@H](C(=O)N1CCN(Cc2ccc(C(=O)NCc3ccccc3OC(F)(F)F)s2)CC1)[C@@H](C)O [Example 41]
9,2.74 nM,O=C(NCc1ccc(Cl)cc1Cl)c1ccc(CN2CCN(C(=O)c3ccc(F)cc3Cl)CC2)s1 [Example 43]
10,2.72 nM,CN1CC(C(=O)N2CCN(Cc3ccc(C(=O)NCc4ccccc4OC(F)(F)F)s3)CC2)CC1=O (stereo not shown) [Example 44]
11,2.67 nM,O=C(NCc1ccccc1C(F)(F)F)c1ccc(CN2CCN(C(=O)c3nccc4ccccc34)CC2)s1 [Example 45]
12,2.69 nM,O=C(NCc1ccccc1OC(F)(F)F)c1ccc(CN2CCN(c3nccs3)C(=O)C2)s1 [Example 47]
13,2.69 nM,NC(CF)C(=O)N1CCN(Cc2ccc(C(=O)NCc3ccc(Cl)cc3Cl)s2)CC1 (stereo not shown) [Example 48]
14,2.68 nM,O=C(NCc1ccccc1OC(F)(F)F)c1ccc(CN2CCN(C(=O)C3COCCN3)CC2)s1 (stereo not shown) [Example 49]
15,2.67 nM,O=C(NCc1ccc(Cl)cc1Cl)c1ccc(CN2CCN(c3ccc(O)nn3)CC2)s1 [Example 50]
16,0.994 nM,Cn1cccc1C(=O)N1CCN(Cc2ccc(C(=O)NCc3ccccc3C(F)(F)F)s2)CC1 [Example 51]
17,0.955 nM,Cn1ncc(Br)c1C(=O)N1CCN(Cc2ccc(C(=O)NCc3ccccc3C(F)(F)F)s2)CC1 [Example 52]
18,1.02 nM,CCOc1ccccc1C(=O)N1CCN(Cc2ccc(C(=O)NCc3ccccc3C(F)(F)F)s2)CC1 [Example 53]
19,1.05 nM,O=C(NCc1ccccc1OC(F)(F)F)c1ccc(CN2CCN(C(=O)C3CCOC3)CC2)s1 (stereo not shown) [Example 55]
20,1.01 nM,COc1ccc(CNC(=O)c2ccc(CN3CCN(CC(F)(F)F)C(=O)C3)s2)c(OC(F)(F)F)c1 [Example 56]
21,1.13 nM,COc1ncccc1C(=O)N1CCN(Cc2ccc(C(=O)NCc3ccccc3C(F)(F)F)s2)CC1 [Example 57]
22,1.17 nM,O=C(NCc1ccc(Cl)cc1Cl)c1ccc(CN2CCN(C(=O)C3(c4ccccc4)CC3)CC2)s1 [Example 58]
23,1.15 nM,Cc1cc(=O)oc(C)c1C(=O)N1CCN(Cc2ccc(C(=O)NCc3ccc(Cl)cc3Cl)s2)CC1 [Example 59]
24,1.1 nM,"Cc1cc(=O)oc(C)c1C(=O)N1CCN(Cc2ccc(C(=O)NCc3ccc(Cl)cc3F)s2)CC1 [Example 60, 5-[4-(2,4-Dimethyl-6-oxo-6H-pyran-3-carbonyl)-piperazin-1-ylmethyl]-thiophene-2-carboxylic acid 4-chloro-2-fluoro-benzylamide]"
25,1.18 nM,CC(O)C(=O)N1CCN(Cc2ccc(C(=O)NCc3ccc(C#N)cc3Cl)s2)CC1 (stereo not shown) [Example 61]
26,1.14 nM,CC1(C)C(=O)NCCN1Cc1ccc(C(=O)NCc2ccccc2OC(F)(F)F)s1 [Example 62]
27,1.21 nM,CC(C(=O)N1CCN(Cc2ccc(C(=O)NCc3ccc(Cl)cc3Cl)s2)CC1)c1ccccc1 (stereo not shown) [Example 63]

row,SMILES,IC50
1,C[C@@H](O)C(=O)N1CCN(Cc2ccc(C(=O)N(Cc3ccccc3)OC(F)(F)F)s2)CC1 [Example 1],0.122 nM
2,O=C(NCc1ccccc1C(F)(F)F)c1ccc(CN2CCN(C(=O)Cc3ccccc3Cl)CC2)s1 [Example 3],0.407 nM
3,O=C(NCc1ccccc1C(F)(F)F)c1ccc(CN2CCN(C(=O)C3Cc4ccccc43)CC2)s1 (stereo not shown) [Example 6],0.528 nM
4,O=C(NCc1ccccc1C(F)(F)F)c1ccc(CN2CCN(C(=O)COc3ccccc3)CC2)s1 [Example 17],0.699 nM
5,O=C(NCc1ccccc1C(F)(F)F)c1ccc(CN2CCN(C(=O)Cc3cccc(C(F)(F)F)c3)CC2)s1 [Example 31],0.758 nM
6,O=C(NCc1ccc(Cl)cc1Cl)c1ccc(CN2CCN(C(=O)COc3ccccc3)CC2)s1 [Example 42],2.7 nM

# Same assay, conditions: recombinant sEH purified from Sf9 insect cells, 2 nM sEH, 5 μM Phome, 60 minutes at 30° C.; trifluoroacetate
row,SMILES,IC50
1,"CC(O)C(=O)N1CCN(Cc2ccc(C(=O)NCc3ccccc3OC(F)(F)F)s2)CC1 (stereo not shown) [Example 54, 5-[4-(2-Hydroxy-propionyl)-piperazin-1-ylmethyl]-thiophene-2-carboxylic acid 2-trifluoromethoxy-benzylamide, trifluoroacetate]",0.976 nM
